Data on three compounds can be found in patent US6399764B1, “DNA molecule encoding for cellular uptake of mycobacterium tuberculosis and uses thereof” (priority 1997, dated 2002).

Entries after “also recorded” stand apart in the source; their conditions may differ.

In this assay the test system is HeLa cells. Nature of the assay: Inhibition of rMcep1-coated fluorescent latex microsphere uptake. Type of assay: cell-based.

As for `COC(=O)Nc1nc2ccc(C(=O)c3cccs3)cc2[nH]1` [Nocodazole], under “nocodazole up to 5 mg/ml, 1 hr preincubation at 4° C. then 5 hrs at 37° C., FIG. 5E”, the “inhibition of association/uptake of rMcep1-coated fluorescent beads” value is reported as “inhibited the association of the beads in a dose dependent fashion; also recorded: had a similar inhibitory effect at noncytotoxic concentrations”.
`CN(C)c1cccc2c(S(=O)(=O)NCCCCCN)cccc12` [MDC, Monodansylcadaverine]: the “inhibition of association/uptake of rMcep1-coated fluorescent beads” value by setting is: (MDC 1-100 mm, 3 h preincubation at 37° C., FIG. 5F) “partly inhibited the association”; (MDC 1-100 mm, 3 h preincubation at 37° C., FIG. 5F, listed as Monodansylcadaverine (MDC)) “partly inhibited the bead uptake”.
As to `C=C1[C@@H](C)[C@H]2[C@H](Cc3ccccc3)NC(=O)[C@]23[C@H](OC(C)=O)/C=C/[C@@](C)(O)C(=O)[C@@H](C)C/C=C/[C@H]3[C@@H]1O` [Cytochalasin D], the “inhibition of association/uptake of rMcep1-coated fluorescent beads” value reads like this: (cytochalasin D 0.1-5 mg/ml, 1 h preincubation at 37° C., FIG. 5D) “blocked the association of the protein-coated beads in a dose-dependent manner”; (cytochalasin D 0.1-5 mg/ml, 1 h preincubation at 37° C., FIG. 5D, listed as cytochalasin D) “blocked uptake of the fluorescent beads, but the inhibition was not complete”.
